From patent US20260125378A2, “Heterocyclic Compounds” (BeOne Medicines I GmbH, priority 2023, published 2026) come the findings set out here.

Molecules are shown by their SMILES.

The target in test [1] is T1, Full length DGKα (D21-10BG, SignalChem) (Homo sapiens, UniProt P23743).
T1 construct: Full length DGKα (D21-10BG, SignalChem); purchased SignalChem D21-10BG
In words: Biochemical DGK IC50 assay (ADP-Glo, lipid micelle substrate), DGKα. The note with it: 1 hour preincubation, 1 hour reaction, room temperature. In a few lines: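 Full-length human DGKα with DAG/PS lipid micelle substrate (in octyl glucoside buffer), reacted 1 h at room temperature in 50 mM HEPES, 10 mM MgCl2, 0.01 mM CaCl2, 0.1 mM Na3VO4, 0.01% BSA, 0.005% Tween-20. ADP formed read by ADP-Glo luminescence; IC50 from inhibition across increasing compound concentrations.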

Test [2] concerns the target T2, Full length DGKζ (in-house protein M1-V929) (Homo sapiens, UniProt Q13574).
T2 construct: His (N); TEV site (N); made in house; host or cells: Sf9 insect cells (Bac-to-Bac baculovirus)
In words: Biochemical DGK IC50 assay (ADP-Glo, lipid micelle substrate), DGKζ. Conditions: 1 hour preincubation, 1 hour reaction, room temperature. The method, boiled down:
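Full-length human DGKζ (M1-V929, His-TEV tagged, Sf9 baculovirus-expressed) with DAG/PS lipid micelle substrate in octyl glucoside, at room temperature in 50 mM HEPES, 10 mM MgCl2, 0.01 mM CaCl2 buffer.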

T1 sequence (P23743 whole entry): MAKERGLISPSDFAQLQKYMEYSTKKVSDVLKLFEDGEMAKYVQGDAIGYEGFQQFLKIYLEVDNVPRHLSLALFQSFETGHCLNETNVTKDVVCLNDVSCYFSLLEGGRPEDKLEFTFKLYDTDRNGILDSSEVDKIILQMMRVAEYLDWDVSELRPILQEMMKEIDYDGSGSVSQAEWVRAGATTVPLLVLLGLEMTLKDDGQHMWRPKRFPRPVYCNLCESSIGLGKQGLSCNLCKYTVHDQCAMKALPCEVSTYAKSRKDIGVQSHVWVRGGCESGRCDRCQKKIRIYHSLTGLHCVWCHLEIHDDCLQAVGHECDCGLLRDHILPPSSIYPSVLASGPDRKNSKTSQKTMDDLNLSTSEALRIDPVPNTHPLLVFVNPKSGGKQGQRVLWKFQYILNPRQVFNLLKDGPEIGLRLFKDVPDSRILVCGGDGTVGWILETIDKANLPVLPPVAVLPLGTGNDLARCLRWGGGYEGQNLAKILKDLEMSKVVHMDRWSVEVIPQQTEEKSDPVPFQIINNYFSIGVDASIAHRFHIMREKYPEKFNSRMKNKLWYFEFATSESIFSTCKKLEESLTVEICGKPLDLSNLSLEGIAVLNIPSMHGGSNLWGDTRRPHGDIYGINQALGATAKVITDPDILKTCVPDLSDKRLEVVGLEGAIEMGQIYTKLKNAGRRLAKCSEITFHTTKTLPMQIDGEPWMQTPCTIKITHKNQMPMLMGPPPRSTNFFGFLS
T2 sequence (Q13574 1-929 isoform Q13574-4): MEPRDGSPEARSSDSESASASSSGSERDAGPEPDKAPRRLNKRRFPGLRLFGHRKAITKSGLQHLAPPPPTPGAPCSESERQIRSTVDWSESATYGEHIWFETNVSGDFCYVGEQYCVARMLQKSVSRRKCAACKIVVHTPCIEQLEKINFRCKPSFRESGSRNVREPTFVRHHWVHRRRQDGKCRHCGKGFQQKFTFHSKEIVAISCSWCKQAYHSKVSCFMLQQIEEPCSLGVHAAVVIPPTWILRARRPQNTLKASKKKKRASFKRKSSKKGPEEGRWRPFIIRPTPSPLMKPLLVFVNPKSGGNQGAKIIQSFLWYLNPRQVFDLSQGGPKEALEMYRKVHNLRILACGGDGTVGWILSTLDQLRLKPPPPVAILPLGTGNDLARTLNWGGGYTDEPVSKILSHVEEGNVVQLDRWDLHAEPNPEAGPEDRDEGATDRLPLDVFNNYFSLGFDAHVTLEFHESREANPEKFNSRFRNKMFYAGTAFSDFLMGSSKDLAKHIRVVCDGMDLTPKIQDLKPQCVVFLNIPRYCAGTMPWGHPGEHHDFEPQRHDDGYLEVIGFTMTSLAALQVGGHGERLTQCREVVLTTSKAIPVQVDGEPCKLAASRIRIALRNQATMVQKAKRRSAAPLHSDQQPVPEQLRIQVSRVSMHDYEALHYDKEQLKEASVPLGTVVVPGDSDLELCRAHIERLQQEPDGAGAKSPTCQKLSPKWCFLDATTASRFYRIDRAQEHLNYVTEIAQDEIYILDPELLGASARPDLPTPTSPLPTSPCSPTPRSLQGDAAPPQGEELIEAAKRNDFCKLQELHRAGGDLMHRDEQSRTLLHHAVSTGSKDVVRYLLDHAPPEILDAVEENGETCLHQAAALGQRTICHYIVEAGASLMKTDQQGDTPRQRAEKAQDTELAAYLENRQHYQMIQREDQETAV

As to `CCn1c(CC#N)nc2c(N3C[C@@H](C)N(C(C)c4ccc(C)c(C(F)(F)F)c4)C[C@@H]3C)nc(=O)n(C)c21` (stereo partly drawn) [Compound A115, 2-(6-((2S,5R)-2,5-dimethyl-4-(1-(4-methyl-3-(trifluoromethyl)phenyl)ethyl)piperazin-1-yl)-9-ethyl-3-methyl-2-oxo-3,9-dihydro-2H-purin-8-yl)acetonitrile], the IC50 in test [1] is above 150000 nM; in test [2], 19 nM.
Regarding `CCn1c(CC#N)nc2c(N3C[C@@H](C)N(C(C)c4ccc5nc(C)sc5c4)C[C@@H]3C)nc(=O)n(C)c21` (single isomer, unassigned) [Compound A56a], the IC50 in test [1] came to 108000 nM; in test [2], 810 nM.
The corresponding values for `CCn1c(CC#N)nc2c(N3C[C@@H](C)N(C(C)c4nc5c(cc4Cl)OCC(C)(C)O5)C[C@@H]3C)nc(=O)n(C)c21` (stereo partly drawn) [Compound A160, 2-(6-((2S,5R)-4-(1-(7-chloro-3,3-dimethyl-2,3-dihydro-[1,4]dioxino[2,3-b]pyridin-6-yl)ethyl)-2,5-dimethylpiperazin-1-yl)-9-ethyl-3-methyl-2-oxo-3,9-dihydro-2H-purin-8-yl)acetonitrile] are above 150000 nM and 331 nM.
In the same order, the values of `Cc1ccc(C(C)N2C[C@H](C)N(c3nc(=O)n(C)c4c3nc(CC#N)n4C)C[C@H]2C)c(C(F)(F)F)c1` (single isomer, unassigned) [Compound A32b] are 5590 nM and 138 nM.
Regarding `CCn1c(CC#N)nc2c(N3C[C@@H](C)N(C(C)c4ccc5c(c4)OC(C)(C)CC5)C[C@@H]3C)nc(=O)n(C)c21` (mixture of isomers) [Compound A94, 2-(6-((2S,5R)-4-(1-(2,2-dimethylchroman-7-yl)ethyl)-2,5-dimethylpiperazin-1-yl)-9-ethyl-3-methyl-2-oxo-3,9-dihydro-2H-purin-8-yl)acetonitrile], the IC50 in test [1] worked out at 23200 nM; in test [2] it was 14 nM.
With `CCn1c(CC#N)nc2c(N3C[C@@H](C)N(C(C)c4cccc(OC(C)C)n4)C[C@@H]3C)nc(=O)n(C)c21` (single isomer, unassigned) [Compound A117a], the IC50 in test [1] was above 150000 nM; in test [2] it was 3300 nM.
For the compound `CCn1c(CC#N)nc2c(N3C[C@@H](C)N(C(C)c4ccc5c(c4)OC(C)(C)O5)C[C@@H]3C)c(F)c(=O)n(C)c21` (stereo partly drawn) [Compound A188, 2-(7-((2S,5R)-4-(1-(2,2-dimethylbenzo[d][1,3]dioxol-5-yl)ethyl)-2,5-dimethylpiperazin-1-yl)-3-ethyl-6-fluoro-4-methyl-5-oxo-4,5-dihydro-3H-imidazo[4,5-b]pyridin-2-yl)acetonitrile], the IC50 is above 150000 nM in test [1] and 74 nM in test [2].
In the same order, the values of `CCn1c(CC#N)nc2c(N3C[C@@H](C)N(C(C)c4cccc(OC(F)(F)F)c4)C[C@@H]3C)nc(=O)n(C)c21` (stereo partly drawn) [Compound A44, 2-(6-((2S,5R)-2,5-dimethyl-4-(1-(3-(trifluoromethoxy)phenyl)ethyl)piperazin-1-yl)-9-ethyl-3-methyl-2-oxo-3,9-dihydro-2H-purin-8-yl)acetonitrile] are 51200 nM and 34 nM.
The corresponding values for `[2H]C([2H])([2H])n1c(CC#N)nc2c(N3C[C@@H](C)N(C(C)c4ccc(F)cc4C(F)(F)F)C[C@@H]3C)nc(=O)n(C)c21` (stereo partly drawn) [Compound A37, 2-(6-((2S,5R)-4-(1-(4-fluoro-2-(trifluoromethyl)phenyl)ethyl)-2,5-dimethylpiperazin-1-yl)-3-methyl-9-(methyl-d3)-2-oxo-3,9-dihydro-2H-purin-8-yl)acetonitrile] are 128000 nM and 18 nM.
Regarding `Cc1ccc(C(C)N2C[C@H](C)N(c3nc(=O)n(C)c4c3nc(CC#N)n4C)C[C@H]2C)c(C(F)(F)F)c1` (single isomer, unassigned) [Compound A32a], the figures for the IC50 in test [1] and in test [2] were above 10000 nM and 3740 nM, respectively.
Regarding `CC[C@H]1CN(C(C)c2ccc(F)cc2C(F)(F)F)[C@H](CC)CN1c1nc(=O)n(C)c2c1nc(CC#N)n2C` (single isomer, unassigned) [Compound A34b], the results for the IC50 in test [1] and in test [2] were above 10000 nM and 9 nM, respectively.
The corresponding values for `CCn1c(CC#N)nc2c(N3C[C@@H](C)N(C(C)c4ccc5c(c4)C(C)(C)CO5)C[C@@H]3C)nc(=O)n(C)c21` (stereo partly drawn) [Compound A183, 2-(6-((2S,5R)-4-(1-(3,3-dimethyl-2,3-dihydrobenzofuran-5-yl)ethyl)-2,5-dimethylpiperazin-1-yl)-9-ethyl-3-methyl-2-oxo-3,9-dihydro-2H-purin-8-yl)acetonitrile] are above 150000 nM and 4 nM.
In the case of `CCn1c(CC#N)nc2c(N3C[C@@H](C)N(C(C)c4ccc(F)c5c4OC(C)(C)O5)C[C@@H]3C)nc(=O)n(C)c21` (single isomer, unassigned) [Compound A185b], the half-maximal inhibitory concentration (IC50) in test [1] was found to be 82500 nM; in test [2], 20 nM.
On to `CCn1c(CC#N)nc2c(N3C[C@@H](C)N(C(C)c4cc5c(cc4Cl)OCC(C)(C)O5)C[C@@H]3C)nc(=O)n(C)c21` (stereo partly drawn) [Compound A73, 2-(6-((2S,5R)-4-(1-(7-chloro-3,3-dimethyl-2,3-dihydrobenzo[b][1,4]dioxin-6-yl)ethyl)-2,5-dimethylpiperazin-1-yl)-9-ethyl-3-methyl-2-oxo-3,9-dihydro-2H-purin-8-yl)acetonitrile], for which the 50% inhibitory concentration (IC50) in test [1] is above 150000 nM; in test [2], 639 nM.
In the same order, the values of `CCn1c(CC#N)nc2c(N3C[C@@H](C)N(C(C)c4cccc(OC(C)C)n4)C[C@@H]3C)nc(=O)n(C)c21` (single isomer, unassigned) [Compound A117b] are 145000 nM and 75 nM.
Take `CCn1c(CC#N)nc2c(N3C[C@@H](C)N(C(C)c4cc(F)c5c(c4)OC(C)(C)O5)C[C@@H]3C)nc(=O)n(C)c21` (mixture of isomers) [Compound A173, 2-(9-ethyl-6-((2S,5R)-4-(1-(7-fluoro-2,2-dimethylbenzo[d][1,3]dioxol-5-yl)ethyl)-2,5-dimethylpiperazin-1-yl)-3-methyl-2-oxo-3,9-dihydro-2H-purin-8-yl)acetonitrile]: the concentration for half-maximal inhibition (IC50) in test [1] is 143000 nM; in test [2], 44 nM.
With `CCn1c(CC#N)nc2c(N3C[C@@H](C)N(C(C)c4ccc5c(c4F)OC(C)(C)O5)C[C@@H]3C)nc(=O)n(C)c21` (single isomer, unassigned) [Compound A175a], the IC50 in test [1] was 37200 nM; in test [2], 291 nM.
For `CCn1c(CC#N)nc2c(N3C[C@@H](C)N(C(C)c4ccc5c(c4)OC(C)(C)CO5)C[C@@H]3C)nc(=O)n(C)c21` (single isomer, unassigned) [Compound A60b], the IC50 in test [1] is above 150000 nM; in test [2] it was 206 nM.
For `CC(c1ccc2c(c1)OC(F)(F)C(F)(F)O2)N1C[C@H](C)N(c2nc(=O)n(C)c3c2nc(CC#N)n3C)C[C@H]1C` (mixture of isomers) [Compound A79, 2-(6-((2S,5R)-2,5-dimethyl-4-(1-(2,2,3,3-tetrafluoro-2,3-dihydrobenzo[b][1,4]dioxin-6-yl)ethyl)piperazin-1-yl)-3,9-dimethyl-2-oxo-3,9-dihydro-2H-purin-8-yl)acetonitrile], the half-maximal inhibitory concentration (IC50) in test [1] was found to be 16400 nM; in test [2], 16 nM.
`CCn1c(CC#N)nc2c(N3C[C@@H](C)N(C(C)c4ccc5c(c4F)OC(C)(C)O5)C[C@@H]3C)nc(=O)n(C)c21` (stereo partly drawn) [Compound A175, 2-(9-ethyl-6-((2S,5R)-4-(1-(4-fluoro-2,2-dimethylbenzo[d][1,3]dioxol-5-yl)ethyl)-2,5-dimethylpiperazin-1-yl)-3-methyl-2-oxo-3,9-dihydro-2H-purin-8-yl)acetonitrile]: the 50% inhibitory concentration (IC50) in test [1] came out at 22200 nM; in test [2], 5 nM.
On to `CCn1c(CC#N)nc2c(N3C[C@@H](C)N(C(C)c4ccc5c(c4)OC(C)(C)CO5)C[C@@H]3C)c(F)c(=O)n(C)c21` (stereo partly drawn) [Compound A20, 2-(7-((2S,5R)-4-(1-(3,3-dimethyl-2,3-dihydrobenzo[b][1,4]dioxin-6-yl)ethyl)-2,5-dimethylpiperazin-1-yl)-3-ethyl-6-fluoro-4-methyl-5-oxo-4,5-dihydro-3H-imidazo[4,5-b]pyridin-2-yl)acetonitrile], for which the 50% inhibitory concentration (IC50) in test [1] stood at 93000 nM; in test [2], 5 nM.
With `COc1cc(F)ccc1C(C)N1C[C@H](C)N(c2nc(=O)n(C)c3c2nc(CC#N)n3C)C[C@H]1C` (single isomer, unassigned) [Compound A24a], the half-maximal inhibitory concentration (IC50) is above 10000 nM in test [1] and 975 nM in test [2].
In the same order, the values of `CCn1c(CC#N)nc2c(N3C[C@@H](C)N(C(C)c4cnc5c(c4)OC(C)(C)CO5)C[C@@H]3C)nc(=O)n(C)c21` (stereo partly drawn) [Compound A76, 2-(6-((2S,5R)-4-(1-(2,2-dimethyl-2,3-dihydro-[1,4]dioxino[2,3-b]pyridin-7-yl)ethyl)-2,5-dimethylpiperazin-1-yl)-9-ethyl-3-methyl-2-oxo-3,9-dihydro-2H-purin-8-yl)acetonitrile] are above 150000 nM and 419 nM.
In the same order, the values of `CC[C@@H]1CN(c2nc(=O)n(C)c3c2nc(CC#N)n3C)[C@@H](C)CN1C(C)c1ccc2c(n1)OC(C)(C)CO2` (mixture of isomers) [Compound A159, 2-(6-((2S,5R)-4-(1-(3,3-dimethyl-2,3-dihydro-[1,4]dioxino[2,3-b]pyridin-6-yl)ethyl)-5-ethyl-2-methylpiperazin-1-yl)-3,9-dimethyl-2-oxo-3,9-dihydro-2H-purin-8-yl)acetonitrile] are 31500 nM and 11 nM.
